Experiments:
[1] = ABTS radical cation decolorization assay; conditions: 6 min incubation, 734 nm; mean ± SD
Method: The antioxidant capacity of flavonoids was measured in three separate tests: ABTS, DPPH, and ferric ion reducing antioxidant power (FRAP) assays (ABTS, DPPH, and FRAP reagents from Sigma-Aldrich). All tested compounds were dissolved in DMSO. All determinations were performed in triplicate. Standard curves were prepared for all assays using different concentrations of Trolox (6-hydroxy-2,5,7,8-tetramethylchroman-2-carboxylic acid) (Sigma-Aldrich). Trolox is a water-soluble analogue of vitamin E with high antioxidant activity, commonly used as a control and a reference in studies of antioxidant activity. The results were expressed as the equivalent of μmol Trolox per μmol of the test compound. The absorbance was measured using a UV-2401 PC spectrophotometer (Shimadzu, Kyoto, Japan). Concentrations of the tested samples were in the range from 50 µg/mL to 10 mg/mL.
The radical cation scavenging capacity of the tested compounds was examined against ABTS^+ (2,2’-azino-bis(3-ethylbenzo-thiazoline-6-sulfonic acid) according to the procedure described by Re et al. with some modifications. The test sample (30 μL) of known concentration was mixed in a polystyrene cuvette with 3 mL of ABTS solution with a measured absorption of 0.700 at a wavelength of λ = 734 nm. After 6 min of incubation, the absorption of samples was recorded. The ABTS reagent was freshly prepared before each experiment.

[2] = Stability of flavonoids before administration to the cell cultures (diluted in RPMI 1640/Opti-MEM medium), HPLC; format: physicochemical; conditions: 100 µg/mL, medium with 2 mM L-glutamine, 5% fetal bovine serum, penicillin, streptomycin; 3 h incubation
Method: Tested compounds were dissolved in DMSO and then diluted in a 1:1 (v/v) mixture of RPMI 1640 (HIIET, PAS, Wroclaw, Poland) and Opti-MEM (Gibco, Scotland, UK) medium supplemented with 2 mM L-glutamine (Sigma-Aldrich, Poznan, Poland), 5% fetal bovine serum (GE Healthcare), 100 units/mL penicillin (Polfa Tarchomin S.A., Warsaw, Poland), and 100 µg/mL streptomycin (Sigma-Aldrich, Poznan, Poland). The antiproliferative effects of the flavonoids were examined after 72 h of exposure of the cultured cells to varying concentrations of the tested agents (from 0.1 to 100 μg/mL) using the MTT (for MV-4-11 cells) or SRB assay described below. Cisplatin (chemotherapy drug used to treat a number of cancers) was used as a positive control. The results are presented as an inhibitory concentration 50 (IC50), which is the concentration of the tested agent that inhibits proliferation of the cell population by 50%. IC50 values for each experiment were calculated separately.
Flavonoids were dissolved (as described in Section 2.4) to the concentration of 100 µg/mL. The solutions corresponding to the solutions before the administration to the cell cultures were incubated in 96-well plates for 3 h and transferred to microtubes containing 400 µL of cold methanol (−20 °C) and kept at −20 °C for 1 h. After centrifugation at 12,000× g for 10 min, samples were analyzed by HPLC. Control experiments were also carried out to determine the stability of flavonoids in DMSO under analogous conditions.

stability after dilution with 1:1 RPMI 1640/Opti-MEM medium [2]	SMILES	TEAC ABTS [1]
complete decomposition	O=c1cc(-c2ccc(O)cc2)oc2c(O)c(O)cc(O)c12 [Compound 10, 8-hydroxyapigenin]	10.184 ± 1.768 µmol trolox per µmol of tested
stable	O=c1cc(-c2ccc(O)cc2)oc2cc(O)cc(O)c12 [Compound 2, apigenin]	0.250 ± 0.014 µmol trolox per µmol of tested
stable	O=C1C[C@@H](c2ccc(O)cc2)Oc2cc(O)cc(O)c21 [Compound 6, naringenin]	0.347 ± 0.020 µmol trolox per µmol of tested

Reference: PMC6680932, “Structure–Antioxidant–Antiproliferative Activity Relationships of Natural C7 and C7–C8 Hydroxylated Flavones and Flavanones” (Antioxidants, 2019)
